This note sets out measurements from patent publication US20250134907A1, “FUSED DIAZEPINES AS AGONISTS OF THE INSULIN-LIKE 3 (INSL3) PEPTIDE RECEPTOR RXFP2 AND METHODS OF USE THEREOF” (The United States of America,as represented by the …, priority 2022, published 2025).

Structures are written as SMILES.

The target in this assay is T1, RXFP2 (Homo sapiens, UniProt Q8WXD0).
T1 construct: expressed in transfected cells
The assay can be described thus: HTRF cAMP assay in HEK293T cells stably expressing RXFP2 (HEK-RXFP2). It counts as cell-based. As to conditions: for % EFF vs. 1 nM INSL3 (b): normalized to 1 nM INSL3 cAMP response; for % EFF vs. 100 nM INSL3 (c): normalized to 100 nM INSL3 cAMP response; for % EFF vs. 1 nM INSL3 (a): maximum cAMP response normalized to 1 nM INSL3 response. How it is done:
Compound efficacy and EC50 were determined by measuring cAMP induction in vitro. HEK293T cells stably expressing RXFP2 (HEK-RXFP2) produce cAMP when RXFP2 is activated, which can be measured in an antibody-based immunoassay utilizing a fluorescent readout (cAMP Gs HiRange Kit, PerkinElmer, Waltham, MA). HEK-RXFP2 cells were seeded in 96-well plates in serum-free DMEM and incubated overnight at 37° C., 5% CO2. Plates were then treated with a compound titration up to 25 μM or INSL3 control, in the presence of isobutylmethylxanthine phosphodiesterase inhibitor (IBMX) at 200 μM to amplify the cAMP signal, for 1 hour at 37° C., 5% CO2 before being processed as per kit instructions. Table 7 lists the efficacy and EC50 of compounds tested under different experimental conditions. […] In condition (a), 20,000 cells were seeded per well in the 96 well plate, and efficacy was determined by normalizing the maximum compound cAMP response to the 1 nM INSL3 cAMP response (% Efficacy 1 nM INSL3 (a)). In condition (b), 10,000 cells were seeded per well, and compound response was normalized to the 1 nM INSL3 cAMP response (% Efficacy 1 nM INSL3 (b)). In condition (c), 7,500 cells were seeded per well, compound response was normalized to the 100 nM INSL3 cAMP response, and IBMX was omitted (% Efficacy 100 nM INSL3 (c)). A range is given when compounds were tested multiple times. Where compounds were tested under multiple experimental conditions, the EC50 listed for the corresponding condition is marked (a) through (c) to correlate. When EC50 could not be calculated from the dose-response curve, EC50 is listed as not determined (ND).
(In TR-FRET formats the signal depends on donor and acceptor labels being close together.)

The mark [1] stands for this setting: condition (b): 10,000 cells/well, IBMX 200 μM.
[2] abbreviates: condition (c): 7,500 cells/well, IBMX omitted.
The mark [3] stands for this setting: condition (a): 20,000 cells/well, IBMX 200 μM.

T1 sequence (Q8WXD0 whole entry): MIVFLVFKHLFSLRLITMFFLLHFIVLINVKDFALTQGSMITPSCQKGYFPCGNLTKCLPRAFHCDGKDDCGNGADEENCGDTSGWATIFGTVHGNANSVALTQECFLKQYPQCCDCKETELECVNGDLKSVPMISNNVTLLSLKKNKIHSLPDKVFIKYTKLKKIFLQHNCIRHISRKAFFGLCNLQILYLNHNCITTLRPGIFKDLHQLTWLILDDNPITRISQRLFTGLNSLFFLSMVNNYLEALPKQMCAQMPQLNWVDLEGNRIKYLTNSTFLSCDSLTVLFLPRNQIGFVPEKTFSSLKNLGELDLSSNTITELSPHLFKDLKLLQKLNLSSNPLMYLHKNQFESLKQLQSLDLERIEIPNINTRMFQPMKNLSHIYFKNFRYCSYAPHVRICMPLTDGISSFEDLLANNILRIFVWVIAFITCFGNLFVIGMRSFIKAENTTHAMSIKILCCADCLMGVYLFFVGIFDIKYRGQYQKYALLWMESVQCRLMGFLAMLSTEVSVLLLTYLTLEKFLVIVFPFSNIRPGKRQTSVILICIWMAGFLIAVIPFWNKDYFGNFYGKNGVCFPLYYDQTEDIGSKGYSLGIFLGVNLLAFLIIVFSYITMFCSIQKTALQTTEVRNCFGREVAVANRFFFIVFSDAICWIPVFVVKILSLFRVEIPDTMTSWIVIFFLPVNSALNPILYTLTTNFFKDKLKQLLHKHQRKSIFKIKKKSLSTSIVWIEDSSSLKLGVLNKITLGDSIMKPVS

Consider `O=C1Nc2ccc(-c3cc(C(F)(F)F)ccc3F)cc2C(=O)N2CCN(C(=O)COc3ccc(OC(F)(F)F)cc3Cl)CC12` (racemic) [Example 104, 2-(2-(2-chloro-4-(trifluoromethoxy)phenoxy)acetyl)-8-(2-fluoro-5-(trifluoromethyl)phenyl)-1,3,4,12a-tetrahydrobenzo[e]pyrazino[1,2-a][1,4]diazepine-6,12 (2H, 11H)-dione], for which, under setting [1], the EC50 was 17.7 nM and the “% EFF vs. 1 nM INSL3 (b)” value was found to be 67.7%. Taken in the same sequence, the figures for `N#Cc1cc(-c2ccc3c(c2)C(=O)N2CCN(C(=O)COc4ccc(OC(F)(F)F)cc4Cl)CC2C(=O)N3)cc(C(F)(F)F)c1` (racemic) [Example 106, 3-(2-(2-(2-chloro-4-(trifluoromethoxy)phenoxy)acetyl)-6,12-dioxo-1,2,3,4,6,11,12,12a-octahydrobenzo[e]pyrazino[1,2-a]1[1,4]diazepin-8-yl)-5-(trifluoromethyl)benzonitrile] were 31.5 nM and 50.30%.

Take `O=C1Nc2cnc(-c3cc(C(F)(F)F)cc(C(F)(F)F)c3)cc2C(=O)N2CCN(C(=O)COc3ccc(OC(F)(F)F)cc3I)C[C@@H]12` (single isomer, unassigned) [Example 196]: under setting [2], the EC50 stood at 984 nM and the “% EFF vs. 100 nM INSL3 (c)” value was 109.23%. As to `O=C1Nc2cnc(-c3cc(C(F)(F)F)cc(C(F)(F)F)c3)cc2C(=O)N2CCN(C(=O)COc3ccc(OC(F)(F)F)cc3Br)C[C@@H]12` (single isomer, unassigned) [Example 197], under setting [2], the “% EFF vs. 100 nM INSL3 (c)” value amounted to 104.06%. As for `O=C1Nc2ncc(-c3cc(C(F)(F)F)cc(C(F)(F)F)c3)cc2C(=O)N2CCN(C(=O)COc3ccc(OC(F)(F)F)cc3I)C[C@@H]12` (single isomer, unassigned) [Example 202], under setting [2], the EC50 turned out to be 40.7 nM and the “% EFF vs. 100 nM INSL3 (c)” value is given as 102.23%.

`O=C1Nc2ccc(-c3cc(C(F)(F)F)cc(C(F)(F)F)c3)nc2C(=O)N2CCN(C(=O)COc3ccc(OC(F)(F)F)cc3I)C[C@@H]12` (single isomer, unassigned) [Example 206]: under setting [2], the midpoint of the response, the EC50, lay at 563 nM and the “% EFF vs. 100 nM INSL3 (c)” value is 60.89%. For `Cc1cc(OC(F)(F)F)ccc1OCC(=O)N1CCN2C(=O)c3cc(-c4ccnc(C(F)(F)F)c4)ccc3NC(=O)C2C1` (stereo not drawn) [Example 40, 2-(2-(2-methyl-4-(trifluoromethoxy)phenoxy)acetyl)-8-(2-(trifluoromethyl)pyridin-4-yl)-1,3,4,12a-tetrahydrobenzo[e]pyrazino[1,2-a][1,4]diazepine-6,12 (2H, 11H)-dione], the “% EFF vs. 1 nM INSL3 (b)” value under setting [1] worked out at 47.69%. Same read-out and setting: then `Cc1cc(OC(F)(F)F)ccc1OCC(=O)N1CCN2C(=O)c3cc(-c4cncc(C(F)(F)F)c4)ccc3NC(=O)C2C1` (stereo not drawn) [Example 41, 2-(2-(2-methyl-4-(trifluoromethoxy)phenoxy)acetyl)-8-(5-(trifluoromethyl)pyridin-3-yl)-1,3,4,12a-tetrahydrobenzo[e]pyrazino[1,2-a][1,4]diazepine-6,12 (2H, 11H)-dione], with 33.78%.

As for `O=C1Nc2ccc(-c3cccc(C(F)(F)F)c3)cc2C(=O)N2CCN(C(=O)COc3ccc(OC(F)F)cc3F)CC12` (stereo not drawn) [Example 55, 2-(2-(4-(difluoromethoxy)-2-fluorophenoxy)acetyl)-8-(3-(trifluoromethyl)phenyl)-1,3,4,12a-tetrahydrobenzo[e]pyrazino[1,2-a][1,4]diazepine-6,12 (2H, 11H)-dione], under setting [3], the concentration for a half-maximal effect (EC50) was 24.4 to 59.4 nM and the “% EFF vs. 1 nM INSL3 (a)” value is listed as 20.07-42.35%.

Take `Cc1cc(OC(F)(F)F)ccc1OCC(=O)N1CCN2C(=O)c3cc(-c4cccc(C(F)(F)F)c4)ccc3NC(=O)C2C1` (stereo not drawn) [Example 64, 2-(2-(2-methyl-4-(trifluoromethoxy)phenoxy)acetyl)-8-(3-(trifluoromethyl)phenyl)-1,3,4,12a-tetrahydrobenzo[e]pyrazino[1,2-a][1,4]diazepine-6,12 (2H, 11H)-dione]: under setting [3], the EC50 fell in the range of 37 to 56.6 nM and the “% EFF vs. 1 nM INSL3 (a)” value was 56.29-60.35%. Taken in the same sequence, the figures for `O=C1Nc2ccc(-c3cccc(C(F)(F)F)c3)cc2C(=O)N2CCN(C(=O)COc3ccc(C(F)(F)F)c(F)c3F)CC12` (stereo not drawn) [Example 68, 2-(2-(2,3-difluoro-4-(trifluoromethyl)phenoxy)acetyl)-8-(3-(trifluoromethyl)phenyl)-1,3,4,12a-tetrahydrobenzo[e]pyrazino[1,2-a][1,4]diazepine-6,12 (2H, 11H)-dione] were 8.56 nM and 33.99%.

`O=C1Nc2ccc(-c3cccc(C(F)(F)F)c3)cc2C(=O)N2CCN(C(=O)COc3ccc(OC(F)(F)F)cc3F)CC12` (stereo not drawn) [Example 101, 2-(2-(2-fluoro-4-(trifluoromethoxy)phenoxy)acetyl)-8-(3-(trifluoromethyl)phenyl)-1,3,4,12a-tetrahydrobenzo[e]pyrazino[1,2-a][1,4]diazepine-6,12 (2H, 11H)-dione]: under setting [3], the EC50 is 24.5 nM and the “% EFF vs. 1 nM INSL3 (a)” value worked out at 35.5%. For the compound `Cc1cc(-c2ccc3c(c2)C(=O)N2CCN(C(=O)COc4ccc(OC(F)(F)F)cc4Cl)CC2C(=O)N3)cc(C(F)(F)F)c1` (stereo not drawn) [Example 105, 2-(2-(2-chloro-4-(trifluoromethoxy)phenoxy)acetyl)-8-(3-methyl-5-(trifluoromethyl)phenyl)-1,3,4,12a-tetrahydrobenzo[e]pyrazino[1,2-a][1,4]diazepine-6,12 (2H, 11H)-dione], the “% EFF vs. 1 nM INSL3 (a)” value under setting [3] is given as 143.62%. Also, under setting [1], the EC50 lay within 84.2 to 219 nM and the “% EFF vs. 1 nM INSL3 (b)” value is given as 81.13-152.31%.

For `O=C1Nc2ccc(-c3ccc(C(F)(F)F)s3)cc2C(=O)N2CCN(C(=O)COc3ccccc3)CC12` (stereo not drawn) [Example 107, 2-(2-phenoxyacetyl)-8-(5-(trifluoromethyl)thiophen-2-yl)-1,3,4,12a-tetrahydrobenzo[e]pyrazino[1,2-a][1,4]diazepine-6,12 (2H, 11H)-dione], under setting [3], the “% EFF vs. 1 nM INSL3 (a)” value amounted to 27.96%. For the compound `Cc1cc(OC(F)(F)F)ccc1OCC(=O)N1CCN2C(=O)c3cc(-c4cccc(C(F)(F)F)n4)ccc3NC(=O)C2C1` (stereo not drawn) [Example 108, 2-(2-(2-methyl-4-(trifluoromethoxy)phenoxy)-acetyl)-8-(6-(trifluoromethyl)pyridin-2-yl)-1,3,4,12a-tetrahydrobenzo[e]pyrazino[1,2-a][1,4]diazepine-6,12 (2H, 11H)-dione], the “% EFF vs. 1 nM INSL3 (b)” value under setting [1] was 38.19%.

Regarding `O=C1Nc2ccc(-c3cccc(C(F)(F)F)c3)cc2C(=O)N2CCN(C(=O)COc3ccccc3)C[C@@H]12` [Example 112, (S)-2-(2-phenoxyacetyl)-8-(3-(trifluoromethyl)phenyl)-1,3,4,12a-tetrahydrobenzo[e]pyrazino[1,2-a][1,4]diazepine-6,12 (2H, 11H)-dione], the “% EFF vs. 1 nM INSL3 (a)” value under setting [3] was 12.93%. In the case of `O=C1Nc2ccc(-c3cccc(C(F)(F)F)c3)cc2C(=O)N2CCN(C(=O)COc3ccccc3)C[C@H]12` [Example 115, (R)-2-(2-phenoxyacetyl)-8-(3-(trifluoromethyl)phenyl)-1,3,4,12a-tetrahydrobenzo[e]pyrazino[1,2-a][1,4]diazepine-6,12 (2H, 11H)-dione], the “% EFF vs. 1 nM INSL3 (a)” value under setting [3] is 3.69%. For `O=C1Nc2ccc(-c3cccc(C(F)(F)F)c3)cc2C(=O)N2CCN(C(=O)COc3ccc(OC(F)(F)F)cc3Cl)C[C@@H]12` [Example 117, (S)-2-(2-(2-chloro-4-(trifluoromethoxy)phenoxy)acetyl)-8-(3-(trifluoromethyl)phenyl)-1,3,4,12a-tetrahydrobenzo[e]pyrazino[1,2-a][1,4]diazepine-6,12 (2H, 11H)-dione], under setting [1], it took 15.6 nM to reach a half-maximal effect (EC50) and the “% EFF vs. 1 nM INSL3 (b)” value was 77.84%. Take `O=C1Nc2ccc(-c3cccc(C(F)(F)F)c3)cc2C(=O)N2CCN(C(=O)COc3ccc(OC(F)(F)F)cc3Cl)C[C@H]12` [Example 118, (R)-2-(2-(2-chloro-4-(trifluoromethoxy)phenoxy)acetyl)-8-(3-(trifluoromethyl)phenyl)-1,3,4,12a-tetrahydrobenzo[e]pyrazino[1,2-a][1,4]diazepine-6,12 (2H, 11H)-dione]: the “% EFF vs. 1 nM INSL3 (a)” value under setting [3] was determined as 43.71%.

For `Cc1cc(OC(F)(F)F)ccc1OCC(=O)N1CCN2C(=O)c3cc(-c4cccc(C(F)(F)F)c4)ccc3NC(=O)[C@@H]2C1` [Example 120, (S)-2-(2-(2-methyl-4-(trifluoromethoxy)phenoxy)acetyl)-8-(3-(trifluoromethyl)phenyl)-1,3,4,12a-tetrahydrobenzo[e]pyrazino[1,2-a][1,4]diazepine-6,12 (2H, 11H)-dione], under setting [1], the EC50 turned out to be 8.6 nM and the “% EFF vs. 1 nM INSL3 (b)” value is on record as 70.76%.

Broadly, the EC50 is the concentration that produces a half-maximal response. A lower EC50 goes with a more potent agent.
